These results are taken from patent US10842777B2, “Compounds and compositions that bind and stabilize transthyretin and their use for inhibiting transthyretin amyloidosis and protein-protein interactions” (The Board of Trustees of the Leland Stanford Junior …, priority 2012, dated 2020).

In series [1] the test system is Hep3B, Jurkat, MCF7 and HeLa cell lines. Kind of series: Cytotoxicity assay (MTT), panel of four cell lines. In kind it is cell-based. To be noted: 1 to 100 μM, 24 h. The protocol:
(§1) Cell viability results are reported relative to cells treated with vehicle only (100% cell viability).
(§2) 5×10^3 cells were seeded on 80 μl growth media (except 2.5×10^4 Jurkat cells) in each well in 96-well plates and incubate O/N at 37° C. 20 μl of fresh growth media containing each compound were added into each well to make the final concentration ranging from 1-100 μM. DMSO was used for normalization. Cell titer was tested every 24 h using CellTiter 96 non-radioactive cell proliferation assay kit (Promega, Madison, Wis.) at 560 nm absorbance.

A further series addresses T1, TTR (Homo sapiens, UniProt P02766).
T1 construct: purchased Sigma; host or cells: human plasma
Kind of series: Isothermal titration calorimetry (ITC). The format is binding. To be noted: for ΔG1 / ΔH1 / ΔG2 / ΔH2: ITC; for ΔG1 / ΔH1: first binding site; for ΔG2 / ΔH2: second binding site; for pKd: TTR 2 μM titrated with 25 μM compound, PBS pH 7.4, 25° C., two-site negative cooperativity model.

The target of series [2] is T2, WT-TTR in human serum (Homo sapiens, UniProt P02766). Kind of series: Serum TTR selectivity assay (covalent probe 6 competition). In kind it is binding. On the set-up: tissue Sigma-Aldrich; host or cells: human serum (A4: from human male AB plasma). To be noted: 10 μM compound, 3.6 μM probe, human serum (TTR ~5 μM), after 6 hours; lower = more selective.
Method: 98 μL of human serum (Sigma-Aldrich) was mixed with 1 μL of test compounds (1.0 mM stock solution in DMSO, final concentration: 10 μM) and 1 μL of covalent probe 6 (0.36 mM stock solution in DMSO: final concentration: 3.6 μM). The fluorescence changes (λex=328 nm and λem=384 nm) were monitored every 10 min using a microplate spectrophotometer reader (Molecular Devices SpectraMax M5) for 6 h at 25° C.
Covalent probe 6 binds selectively to TTR in serum and covalently modifies K15, creating a fluorescent conjugate. Ligands that bind with high selectivity to TTR in serum decrease covalent probe 6 binding to TTR and therefore lower the fluorescence. All test compounds (10 μM) were incubated with human serum (WT-TTR concentration ˜5 μM) in the presence of covalent probe 6 (3.6 μM) (FIG. 4).
The target in series [3] is T2, WT-TTR in human serum. Briefly: Serum WT-TTR tetramer stability against acid denaturation. To be noted: 10 μM compound, human serum (TTR ~5 μM), pH 4.0, 72 hours.
Method: Serum samples were incubated in acetate buffer (pH 4.0), with DMSO or 10 μM of test compound, for the desired time period (0 and 72 hours) before cross-linking, SDS-PAGE, and immunoblotting. The density of all TTR bands (TTR tetramer; arrowhead and TTR bound to RBP; solid arrow) was quantified using an Odyssey infrared imaging system (LI-COR Bioscience, Lincoln, Nebr.) and reported as % TTR tetramer=100×[(tetramer & tetramer+RBP density, 72 hrs)/(tetramer & tetramer+RBP density of DMSO, 0 hrs)].
All compounds were 10 mM stock solutions in DMSO and diluted accordingly with DMSO for different assays. 0.5 μl of each compound was added to 24.5 μl of human serum (from human male AB plasma, Sigma) to make the final concentration of 10 μM. The samples were incubated at 37° C. for 2 h, and then 10 μl of the samples were diluted 1:10 with acidification buffer (pH 4.0, 100 mM sodium acetate, 100 mM KCl, 1 mM EDTA, 1 mM DTT). […] All the samples were denatured with adding 100 μl SDS gel loading buffer and boiled for 5 min. […] The normalization was done by dividing each value of the TTR tetramer band intensity by the average of all the values at time 0.
The compounds were tested for their ability to stabilize WT-TTR in human serum (FIG. 5). […] Test compounds (10 μM) were pre-incubated with human serum (TTR ˜5 μM) and the pH was lowered to pH 4.0 to induce aggregation. Aliquots, taken at 0 and 72 hours, were treated with glutaraldehyde to cross-link TTR tetramers that remained intact in the serum sample. SDS-PAGE followed by immunoblot analysis was used to measure the amount of intact TTR tetramer after 72 hours of acid treatment in the presence and absence of test compounds.
Series [4] addresses T3, V122I-TTR in serum from FAC patients (Homo sapiens, UniProt P02766, V142I).
T3 construct: stabilization of V122I-TTR in serum from two FAC patients; from tissue; host or cells: serum of two FAC patients carrying V122I
Briefly: Serum V122I-TTR tetramer stability against acid denaturation. In kind it is biochemical. To be noted: 10 μM compound, pH 4.0, 72 hours.

Another series relates to Hela cells. Kind of series: Cytotoxicity assay (MTT), HeLa. In kind it is cell-based. To be noted: 1 to 100 μM, 24 h. The protocol:
as §1, §2

For a further series, the system named is Hep3B cells. Kind of series: Cytotoxicity assay (MTT), Hep3B. In kind it is cell-based, human. To be noted: 1 to 100 μM, 24 h. The protocol:
as §1, §2

Another series relates to MCF7 cells. Kind of series: Cytotoxicity assay (MTT), MCF7. The format is cell-based. To be noted: MCF7, 1 to 100 μM, 24 h. The protocol: as §1, §2
The conditions of series [5]: human subjects, 20 mg daily dose; read-out: mean maximum concentration (Cmax) in serum; cited from earlier work.

The structures appear in SMILES notation. pKd: −log10 of the molar value. “Also recorded” adds a separate entry of the source. Like-named read-outs stand apart in the source and are kept apart here.

Regarding `Cc1n[nH]c(C)c1CCCOc1cc(C(=O)O)ccc1F` [Compound VIIc, 3-(3-(3,5-Dimethyl-1H-pyrazol-4-yl)propoxy)-4-fluorobenzoic acid], the “cytotoxicity towards the cell lines tested” value in series [1] is “not toxic; also recorded: no cytotoxic effects”. On TTR, this molecule registered a ΔG1 of roughly −11.4, a ΔH1 of -13.6 kcal/mol, a ΔG2 of roughly −8.8 and a ΔH2 of -7.5 kcal/mol. The “covalent probe 6 binding to TTR relative to probe alone” value at WT-TTR in human serum [2] is recorded as 3.1±2.9%. Moreover, the “TTR tetramer stabilization (% TTR tetramer)” value on WT-TTR in human serum [3] is on record as 108+/−6%. In series [4], this molecule displayed a V122I-TTR tetramer stabilized of roughly 100%.

With `Cc1n[nH]c(C)c1CCCOc1ccccc1F` [Compound A], the “concentration at which cytotoxicity is shown” value in the series on Hela cells and with Hep3B cells was greater than 25 µM throughout. In addition, the “concentration at which toxicity to certain cell lines is displayed” value in series [1] is greater than 25 µM. The pKd was 7.24 at TTR (read-out: Kd1) and 6.30 on TTR (read-out: Kd2). At WT-TTR in human serum [2], the “covalent probe 6 binding to TTR relative to probe alone” value is 59.3±8.7%. Also, the “TTR tetramer stabilization (% TTR tetramer)” value at WT-TTR in human serum [3] is given as 61.7%+/−2.1.

For the molecule `O=C(O)c1ccc2nc(-c3cc(Cl)cc(Cl)c3)oc2c1` [tafamidis], at TTR, the ΔG1 is roughly −11.4, the ΔH1 is -5.0 kcal/mol, the ΔG2 is on record as roughly −8.8 and the ΔH2 is -3.9 kcal/mol. The “TTR tetramer stabilization (% TTR tetramer)” value on WT-TTR in human serum [3] is given as “about 58%+/−3”. The “concentration at which cytotoxic effects were observed” value with MCF7 cells was greater than 50 µM. For the same molecule, the Cmax in [5] is roughly 7.4 µM.
